Measured values from BindingDB's records for doi:10.1016/j.bmcl.2006.05.053 (Institute For Molecular Studies, 2006).

Molecular target: Mu-type opioid receptor (Rattus norvegicus, UniProt P33535)
Experiment: Displacement of [3H]DAMGO from mu opioid receptor in rat brain homogenate

Chain of Mu-type opioid receptor (P33535 whole entry): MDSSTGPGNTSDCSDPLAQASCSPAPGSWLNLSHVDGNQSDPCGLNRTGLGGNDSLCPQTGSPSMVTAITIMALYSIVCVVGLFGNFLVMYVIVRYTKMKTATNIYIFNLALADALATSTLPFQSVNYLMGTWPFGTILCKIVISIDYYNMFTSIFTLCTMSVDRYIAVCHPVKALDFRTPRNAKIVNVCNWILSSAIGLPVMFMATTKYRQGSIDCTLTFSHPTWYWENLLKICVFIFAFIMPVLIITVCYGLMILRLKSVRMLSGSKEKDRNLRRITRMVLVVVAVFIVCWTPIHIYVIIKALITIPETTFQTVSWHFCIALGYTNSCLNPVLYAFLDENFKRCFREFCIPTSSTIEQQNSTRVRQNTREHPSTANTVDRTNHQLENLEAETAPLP

## CN[C@@H](Cc1ccc(O)cc1)CN(C)[C@H](CNCc1ccccc1)Cc1ccc(O)cc1 [4-[(2S)-3-{[(2S)-1-(benzylamino)-3-(4-hydroxyphenyl)propan-2-yl](methyl)amino}-2-(methylamino)propyl]phenol]
  IC50: 2 nM
